Data on twelve compounds can be found in patent US4780464A, “(1,2,4)triazolo(4,3-a)quinoxaline-4-amines” (Warner-Lambert Company, priority 1986, dated 1988).

Where only a bound is given, the exact number is not on record here.

Assay [1] deals with T1, adenosine A1 receptor (Rattus norvegicus, UniProt P25099).
T1 construct: Whole brain minus cerebellum and brainstem from male Long-Evans rats (150-200 g) is homogenized; from tissue; host or cells: rat whole brain minus cerebellum and brainstem, membranes
T1 sequence (P25099 1-326): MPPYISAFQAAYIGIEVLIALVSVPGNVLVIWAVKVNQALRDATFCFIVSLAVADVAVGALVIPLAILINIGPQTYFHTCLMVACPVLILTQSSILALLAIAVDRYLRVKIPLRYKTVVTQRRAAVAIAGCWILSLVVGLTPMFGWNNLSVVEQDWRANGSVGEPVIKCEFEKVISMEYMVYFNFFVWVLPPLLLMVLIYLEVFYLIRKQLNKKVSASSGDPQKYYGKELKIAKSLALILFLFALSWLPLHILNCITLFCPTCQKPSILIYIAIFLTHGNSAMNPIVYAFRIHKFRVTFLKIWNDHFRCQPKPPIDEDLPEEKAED
Nature of the assay: Adenosine Receptor Binding--A1 Receptor Affinity (RBA1), [3H]-CHA, rat whole brain minus cerebellum and brainstem membranes. On the set-up: species or system rat (male Long-Evans). The conditions noted are these: 1.0 nM [3H]-CHA, pH 7.7, 25° C., one hour, read-out: RBA-1 (IC50, adenosine A1 receptor affinity). The protocol:
Whole brain minus cerebellum and brainstem from male Long-Evans rats (150-200 g) is homogenized in 30 volumes of ice-cold 0.05 M Tris-HCl buffer pH 7.7 using a Brinkman Polytron PT-10, (setting number 6 for 20 seconds) and centrifuged for ten minutes at 20,000×g (Sorvall RC-2), 4° C. The supernatant is discarded, and the pellet is resuspended and centrifuged as before. The pellet is resuspended in 20 ml Tris-HCl buffer containing two International Units/ml of adenosine deaminase (Sigma type III from calf intestinal mucosa), incubated at 37° C. for 30 minutes, then subsequently at 0° C. for ten minutes. The homogenate is again centrifuged, and the final pellet is resuspended in ice-cold 0.05 M Tris-HCl buffer pH 7.7 to a concentration of 20 mg/ml original wet tissue weight and used immediately. […] Incubation volume was 2 ml. […] The filters are rinsed three times with 5 ml of ice-cold 0.05 M Tris-HCl buffer pH 7.7. The radio-labeled ligand retained on the filter is measured by liquid scintillation spectrophotometry after shaking the filters for one hour or longer on a mechanical shaker in 10 ml of Beckman Ready-Solv HP scintillation cocktail. Nonspecific binding is defined as the binding which occurs in the presence of 1 mM theophylline. […] The Scatchard plot is calculated by linear regression of the line obtained by plotting the amount of radioligand bound (pmoles/gram of tissue) versus [formula] Since the amount of radioligand bound is a small fraction of the total amount added, free radioligand is defined as the concentration of (nM) of radioligand added to the incubation mixture. The Hill coefficient is calculated by linear regression of the line obtained by plotting the log of the bound radioligand vs the log of the [formula] The maximal number of binding sites (Bmax) is calculated from the Scatchard plot.

The target in assay [2] is T2, adenosine A2 receptor (Rattus norvegicus, UniProt P30543).
T2 construct: Brains are thawed and then kept on ice while the striata are dissected out; tissue Pel-Freez (Rogers, Arkansas); host or cells: rat striatum, membranes
Briefly: Adenosine Receptor Binding--A2 Receptor Affinity (RBA2), [3H]NECA, rat striatal membranes. Also on record: species or system rat (Sprague-Dawley; Long-Evans hooded). The conditions noted are these: 4 nM [3H]NECA, 50 nM N6-cyclopentyladenosine, 25° C., 60 min, read-out: RBA-2 (IC50, adenosine A2 receptor affinity). As for the experimental part:
Brains from 200-500 g mixed sex Sprague-Dawley rats are purchased from Pel-Freez (Rogers, Arkansas). Fresh brains from male Long-Evans hooded rats (Blue Spruce Farms, Altamont, NY) give essentially identical results. Brains are thawed and then kept on ice while the striata are dissected out. Striata are disrupted in 10 vol of ice-cold 50 mM Tris.HCl (pH 7.7 at 25° C., pH 8.26 at 5° C.) (Tris) for 30 seconds in a Polytron PT-10 (Brinkman) at setting 5. The suspension is centrifuged at 50,000 xg for ten minutes, the supernatant discarded, the pellet resuspended in 10 vol ice-cold Tris as above, recentrifuged, resuspended at 1 g/5 ml, and stored in plastic vials at -70° C. (stable for at least six months). When needed, tissue is thawed at room temperature, disrupted in a Polytron, and kept on ice until used.
All incubations are for 60 minutes at 25° C. in 12×75 mm glass tubes containing 1 ml Tris with 5 mg original tissue weight of rat weight of rat striatal membranes, 4 nM [^3 H]-N-ethyl adenosine-5'-carboxamide ([^3 H]NECA), 50 nM N6-cyclopentyladenosine (to eliminate A1 receptor binding), 10 mM MgCl2, 0.1 units/ml of adenosine deaminase and 1% dimethylsulfoxide. N6-Cyclopentyladenosine is dissolved at 10 mM in 0.02 N HCl and diluted in Tris. Stock solutions and dilutions of N6-cyclopentyladenosine can be stored at -20° C. for several months. Test compounds are dissolved at 10 mM in dimethylsulfoxide on the same day as the experiment, and diluted in dimethylsulfoxide to 100× the final incubation concentration. […] [^3 H]NECA is diluted to 40 nM in Tris. The membrane suspension (5 mg/0.79 ml) contained sufficient MgCl2 and adenosine deaminase to give 10 mM and 0.1 units/ml, respectively, final concentration in the incubation. […] After all additions, the rack of tubes is vortexed, and the tubes are then incubated for 60 min at 25° C. in a shaking water bath. The rack of tubes is vortexed an additional time halfway through the incubation.
Incubations are terminated by filtration through 2.4 cm GF/B filters under reduced pressure. Each tube is filtered as follows: the contents of the tube are poured on the filter, 4 ml of ice-cold Tris are added to the tube and the contents poured onto the filter, and the filter is washed twice with 4 ml of ice-cold Tris. The filtration is complete in about twelve seconds. Filters are put in scintillation vials, 8 ml of Formula 947 scintillation fluid added, and the vials left overnight, shaken, and counted in a liquid scintillation counter at 40% efficiency.
Nonspecific binding is defined as binding in the presence of 100 μM N6-cyclopentyladenosine, and specific binding is defined as total binding minus nonspecific binding. The IC50 is calculated by weighted nonlinear least squares curve-fitting to the mass-action equation. [formula] where
Weighting factors are calculated under the assumption that the standard deviation was proportional to the predicted value of Y. Nonspecific binding is treated as a very large (infinite) concentration of drug in the computer analysis.

T2 sequence (P30543 whole entry): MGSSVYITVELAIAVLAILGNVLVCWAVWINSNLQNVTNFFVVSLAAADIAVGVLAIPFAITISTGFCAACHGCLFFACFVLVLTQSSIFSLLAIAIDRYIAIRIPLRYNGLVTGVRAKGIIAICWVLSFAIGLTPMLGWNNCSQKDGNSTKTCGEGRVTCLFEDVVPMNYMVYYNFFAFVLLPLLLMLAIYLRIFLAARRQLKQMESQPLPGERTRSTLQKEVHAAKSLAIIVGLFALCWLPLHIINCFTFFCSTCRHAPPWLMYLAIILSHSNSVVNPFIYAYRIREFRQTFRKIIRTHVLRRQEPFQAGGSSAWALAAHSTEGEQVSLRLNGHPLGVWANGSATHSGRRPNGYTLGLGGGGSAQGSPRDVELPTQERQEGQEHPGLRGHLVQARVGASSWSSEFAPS

As a reminder, the IC50 is the point on the concentration scale where inhibition reaches its midpoint. `CCc1nnc2c(NC3CCCCC3)nc3ccccc3n12` [Example 8, N-Cyclohexyl-1-ethyl[1,2,4]triazolo[4,3-a]quinoxalin-4-amine]: the IC50 was 146 nM in assay [1] and 5880 nM in assay [2].
On the same counts, the results for `c1ccc2c(c1)nc(NC1CCCC1)c1nncn12` [Example 1, N-Cyclopentyl[1,2,4]triazolo[4,3-a]quinoxalin-4-amine] are 331 nM and 7770 nM.
On the same counts, the results for `CCc1nnc2c(NC[C@H](C)O)nc3ccccc3n12` [Example 10, (S)-1-[(1-ethyl[1,2,4]triazolo[4,3-a]quinoxalin-4-yl)amino]-2-propanol] are 554 nM and 40700 nM.
For the compound `CCc1nnc2c(N[C@@H]3C[C@H]4CC[C@@H]3C4)nc3ccccc3n12` (relative stereo) [Example 9, Exo-N-bicyclo[2.2.1]hept-2-yl-1-ethyl[1,2,4]triazolo [4,3-a]quinoxalin-4-amine], the half-inhibitory concentration (IC50) in assay [1] is 74 nM; in assay [2], 8690 nM.
For `CCc1nnc2c(Nc3ccccc3)nc3ccccc3n12` [Example 11, 1-Ethyl-N-phenyl[1,2,4]triazolo[4,3-a]quinoxalin-4-amine], in that order: 982 nM and 20000 nM.
On the same counts, the results for `CCCc1nnc2c(NC3CCCC3)nc3ccccc3n12` [Example 4, N-Cyclopentyl-1-propyl[1,2,4]triazolo[4,3-a]quinoxalin-4-amine] are 68 nM and 5080 nM.
For `CCc1nnc2c(NC3CCC3)nc3ccccc3n12` [Example 7, N-Cyclobutyl-1-ethyl[1,2,4]triazolo[4,3-a]quinoxalin-4-amine], in that order: 109 nM and 2320 nM.
On to `CCCCc1nnc2c(NC3CCCC3)nc3ccccc3n12` [Example 5, 1-Butyl-N-cyclopentyl[1,2,4]triazolo[4,3-a]quinoxalin-4-amine], for which the values for the concentration for half-maximal inhibition (IC50) in assay [1] and in assay [2] were 101 nM and above 100000 nM, respectively.
For the compound `CCc1nnc2c(NC3CCCC3)nc3ccccc3n12` [Example 3, N-Cyclopentyl-1-ethyl[1,2,4]triazolo[4,3-a]quinoxalin-4-amine], the IC50 was 49.7 nM in assay [1] and 2510 nM in assay [2].
On the same counts, the results for `FC(F)(F)c1nnc2c(NC3CCCC3)nc3ccccc3n12` [Example 13, N-Cyclopentyl-1-(trifluoromethyl)[1,2,4]triazolo [4,3-a]quinoxalin-4-amine] are 12.5 nM and 2080 nM.
For `Cc1nnc2c(NC3CCCC3)nc3ccccc3n12` [Example 2, N-cyclopentyl-1-methyl[1,2,4]triazolo[4,3-a]quinoxalin-4-amine], in that order: 71 nM and 6130 nM.
With `CCc1nnc2c(NC3CC3)nc3ccccc3n12` [Example 6, N-Cyclopropyl-1-ethyl[1,2,4]triazolo[4,3-a]quinoxalin-4-amine], the results for the half-inhibitory concentration (IC50) in assay [1] and in assay [2] were 487 nM and 6630 nM, respectively.
